Patent US9925274B2, “Delphinidin complex as an antiphlogistic or immunosuppressive active ingredient” (priority 2012, dated 2018)
Entries after “also recorded” stand apart in the source; their conditions may differ. Read-outs that look alike come from different tables or passages of the source.

What was measured:
NFKB = test: Concentration of NFKB in the nucleus of monocytes after stimulation with LPS and/or delphinidin (immunofluorescence nuclear staining; Examples 6-8); format: cell-based; set-up: Inhibitory effect on the cell immune response compared to hydrocortisone: dose or concentration left out as unconfirmed
Procedure: For healthy test subjects, the concentration of NFKB in the nucleus of monocytes after stimulation with LPS and/or delphinidin was assayed by means of immunofluorescence nuclear staining for NFKB and expressed in relation to nonstimulated cells. NFKB is activated by various stimuli, especially inflammatory and stress-associated stimuli.
The following procedure was carried out and shown in FIG. 1 from left to right, with the stimulation/incubation of the cells (1 ml in each case of RPMI-1640 comprising 1 million cells in the exponential growth phase) taking place at 37° C. in a well of a 24-well polystyrene cell culture dish and the specified concentrations being final concentrations: • “1.5 h 10 μg LPS”—Stimulation of the cells for 1.5 h with 10 μg/ml LPS (control) • “24 h prestim. 5 μM Del-Cl; 1.5 h 10 μg LPS”—24 h prestimulation of the cells with 5 μM delphinidin chloride (dissolved in RPMI-1640 cell medium) and then 1.5 h stimulation with 10 μg/ml LPS • “1.5 h 5 μM Del-Cl+10 μg LPS”—1.5 h simulation of the cells with 10 μg/ml LPS and 5 μM delphinidin chloride (dissolved in RPMI-1640 cell medium) • “24 h prestim. 5 μM Del-Cl; 1.5 h 5 μM Del-Cl”—24 h prestimulation of the cells with 5 μM delphinidin chloride (dissolved in RPMI-1640 cell medium) and then renewed stimulation with 5 μM delphinidin chloride (dissolved in RPMI-1640 cell medium) for 1.5 h • “24 h prestim. 5 μM Del-Cl; 1.5 h 5 μM Del-Cl+10 μg LPS”—24 h prestimulation of the cells with 5 μM delphinidin chloride (dissolved in RPMI-1640 cell medium) and then renewed stimulation with 5 μM delphinidin chloride (dissolved in RPMI-1640 cell medium) and 10 μg/ml LPS for 1.5 h
A procedure analogous to the methodology in example 5 was carried out and shown in FIGS. 2a and 2b from left to right, with the stimulation/incubation of the cells (1 ml in each case of RPMI-1640 comprising 1 million cells in the exponential growth phase) taking place at 37° C. in a well of a 24-well polystyrene cell culture dish and the specified concentrations being final concentrations:
FIG. 2a: • “1.5 h 10 μg LPS”—Stimulation of the cells for 1.5 h with 10 μg/ml LPS (control) • “1.5 h 5 μM Del-Cl+10 μg LPS”—1.5 h simulation of the cells with 10 μg/ml LPS and 5 μM delphinidin chloride (dissolved in RPMI-1640 cell medium) • “1.5 h hydrocortisone+10 μg LPS”—Stimulation of the cells for 10^−5 M hydrocortisone and 10 μg/ml LPS for 1.5 h
FIG. 2b: • “1.5 h 10 μg LPS”—Stimulation of the cells for 1.5 h with 10 μg/ml LPS (control) • “1.5 h 10 μM Del-Cl+10 μg LPS”—1.5 h simulation of the cells with 10 μg/ml LPS and 10 μM delphinidin chloride (dissolved in RPMI-1640 cell medium)
A procedure analogous to the methodology in examples 5 and 6 was carried out and shown in FIG. 3 from left to right, with the stimulation/incubation of the cells (1 ml in each case of RPMI-1640 comprising 1 million cells in the exponential growth phase) taking place at 37° C. in a well of a 24-well polystyrene cell culture dish and the specified concentrations being final concentrations: • “1.5 h 2.5 μM Del-Cl”—1.5 h stimulation of the cells with 2.5 μM delphinidin chloride (dissolved in RPMI-1640 cell medium) • “1.5 h 5 μM Del-Cl”—1.5 h simulation of the cells with 5 μM delphinidin chloride (dissolved in RPMI-1640 cell medium) • “1.5 h 10 μM Del-Cl”—1.5 h stimulation of the cells with 10 μM delphinidin chloride (dissolved in RPMI-1640 cell medium) • “1.5 h hydrocortisone”—1.5 h stimulation of the cells with […] hydrocortisone

[1] = Stability experiments in aqueous solution: 0.9% NaCl, 37° C., delphinidin content by HPLC (Example 5); format: physicochemical; conditions: dark, start 1.584 mg/ml (complex) or 0.0216 mg/ml (uncomplexed)
Procedure: The content of delphinidin chloride in the delphinidin-containing solutions was determined by using a reverse-phase HPLC method similar to the one already described above. This used the following reagents: • Purified water • Methanol for chromatography • Formic acid, p. a. • 1 M Hydrochloric acid as volumetric solution.
The solutions were produced at room temperature and then stored in closed vials in the dark at 37° C.
After 1, 2, 3 and 4 h, the delphinidin content was determined. The table below specifies the ascertained content as a percentage of the above-stated starting concentration.

[2] = tested on: tight junction protein claudin-5 mRNA expression in cEND cells; test: claudin-5 mRNA expression in cEND cells with or without TNFα (Example 10); format: cell-based, murine
Text: The surrogate marker used for the tightness of the barrier was the expression of the tight junction protein claudin-5 (Forster C. Tight junctions and the modulation of barrier function in disease. Histochem Cell Biol. 2008; 130: 55-70) and the procedure carried out was analogous to example 8.

[3] = tested on: Cc17 [chemokine (C—C motif) ligand 7] mRNA expression in cEND cells; conditions: for Effect on the TNFα-induced rise in Cc17 mRNA expression: TNFα 24 h
[4] = Solubility of delphinidin chloride in aqueous cyclodextrin solutions (Example 1); conditions: neutral aqueous solution with 10% by weight cyclodextrin (β-CD 2%) or pure water; excess delphinidin chloride; stirred in the dark at 30° C. for 20 h; 0.22 μm filtration
[5] = conclusion from the measured results

C[C@]12CCC(=O)C=C1CC[C@@H]1[C@@H]2[C@@H](O)C[C@@]2(C)[C@H]1CC[C@]2(O)C(=O)CO [hydrocortisone, reference compound]
Inhibition of the LPS-mediated immune response (NFKB in the nucleus) (NFKB; 1.5 h 10^−5 M hydrocortisone + 10 μg/ml LPS, FIG. 2a): inhibited

Oc1cc(O)c2cc(O)c(-c3cc(O)c(O)c(O)c3)[o+]c2c1.[Cl-] [delphinidin, Delphinidin chloride]
Delphinidin content as a percentage of the starting concentration ([1]; 0 h): 100%
Delphinidin content as a percentage of the starting concentration ([1]; 1 h): 8.3%
Delphinidin content as a percentage of the starting concentration ([1]; 2 h): 6.5%
Delphinidin content as a percentage of the starting concentration ([1]; 3 h): 5.6%
Delphinidin content as a percentage of the starting concentration ([1]; 4 h): 5.1%
Inhibition of the LPS-mediated immune response (NFKB in the nucleus) (NFKB; 1.5 h 5 μM Del-Cl + 10 μg/ml LPS simultaneously, FIG. 1, FIG. 2a): inhibition of the immune response; also recorded: inhibited at least just as well as by means of addition of hydrocortisone
Inhibition of the LPS-mediated immune response (NFKB in the nucleus) (NFKB; 1.5 h 10 μM Del-Cl + 10 μg/ml LPS, repeat experiment FIG. 2b): significantly reduced
Inhibition of the cell immune response with varying concentration (NFKB in the nucleus) (NFKB; 1.5 h 2.5, 5 and 10 μM Del-Cl, without LPS, FIG. 3): increase in the delphinidin-mediated inhibition of the cell immune response (dose effect)
Inhibition of the LPS-mediated immune response (NFKB in the nucleus) (NFKB; 24 h prestimulation 5 μM Del-Cl, then 1.5 h 5 μM Del-Cl + 10 μg/ml LPS, FIG. 1): further intensified (additive effect)
Inhibition of the LPS-mediated immune response (NFKB in the nucleus) (NFKB; 24 h prestimulation with 5 μM Del-Cl, then 1.5 h 10 μg/ml LPS, FIG. 1): (weakly) inhibits
Inhibitory effect on the cell immune response compared to hydrocortisone (NFKB; appropriately high delphinidin concentration, 1.5 h, comparison hydrocortisone, FIG. 3): comparable to that of hydrocortisone
Effect on the TNFα-mediated decrease in claudin-5 mRNA expression ([2]; then delphinidin 0.1 μM, FIG. 5): counteracted this TNFα-mediated decrease
Effect on the TNFα-mediated decrease in claudin-5 mRNA expression ([2]; then delphinidin 1 μM, FIG. 5): counteracted this TNFα-mediated decrease
Barrier of the blood-brain barrier after inflammation [2, 5]: strongly increases
Effect on claudin-5 mRNA expression without prior TNFα exposure ([2]; delphinidin alone in the cell culture medium, FIG. 5): increase in claudin-5 mRNA expression
Effect on the TNFα-induced rise in Cc17 mRNA expression ([3]; then delphinidin 0.1 μM for a further 24 h, FIG. 4): distinct suppression or inhibition
Effect on the TNFα-induced rise in Cc17 mRNA expression ([3]; then delphinidin 1 μM for a further 24 h, FIG. 4): distinct suppression or inhibition
Antiphlogistic effect on the blood-brain barrier after inflammation relative to dexamethasone [3, 5]: at least equivalent
Effect on Cc17 expression without prior TNFα exposure ([3]; delphinidin alone in the cell culture medium, FIG. 4): suppression of Cc17 expression
Attainable solubility, Delphinidin chloride [4]: 70 µg/mL
